Results published in patent US11414436B2, “Non-coordinating anion type activators containing cation having large alkyl groups” (ExxonMobil Chemical Patents Inc., priority 2018, dated 2022).
Where “and” joins values, the source holds several entries; their conditions need not be identical. Equal entries are not always repeated.

Assays:
[1] = Propylene homopolymerization in parallel pressure reactor, MCN-1 with ammonium borate activators; conditions: for activity: isohexane; for average catalyst activity, comparison of the four activators (FIG. 6): MCN-1, polypropylene at 100° C., Table 7 runs
[2] = Ethylene-octene copolymerization in parallel pressure reactor, non-metallocene catalyst CAT-1; conditions: catalyst CAT-1 20 nmol; activator 1.1 equiv; 100° C.; 135 psi; 1-octene 100 uL; TNOAL 0.5 umol
Procedure: (§1) Solutions of the metal complexes and activators were prepared in a drybox using toluene or methylcyclohexane. Concentrations were typically 0.2 mmol/L. Tri-n-octylaluminum (TNOAL, neat, AkzoNobel) was typically used as a scavenger. Concentration of the TNOAL solution in toluene ranged from 0.5 to 2.0 mmol/L.
(§2) Polymerizations were carried out in a parallel pressure reactor, as generally described in U.S. Pat. Nos. 6,306,658; 6,455,316; 6,489,168; WO 00/09255; and Murphy, V. et al. (2003) “A Fully Integrated High-Throughput Screening Methodology for the Discovery of New Polyolefin Catalysts: Discovery of a New Class of High Temperature Single-Site Group (IV) Copolymerization Catalysts,” J. Am. Chem. Soc., v. 125, pp. 4306-4317, each of which is fully incorporated herein by reference. […] Although the specific quantities, temperatures, solvents, reactants, reactant ratios, pressures, and other variables are frequently changed from one polymerization run to the next, the following describes a typical polymerization performed in a parallel pressure reactor.
(§3) Ethylene-Octene Copolymerization (EO).
(§4) A pre-weighed glass vial insert and disposable stirring paddle were fitted to each reaction vessel of the reactor, which contains 48 individual reaction vessels. The reactor was then closed and purged with ethylene. Each vessel was charged with enough solvent (typically isohexane) to bring the total reaction volume, including the subsequent additions, to the desired volume, typically 5 mL. 1-octene, if required, was injected into the reaction vessel and the reactor was heated to the set temperature and pressurized to the predetermined pressure of ethylene, while stirring at 800 rpm. The aluminum compound (such as tri-n-octylaluminum) in toluene was then injected as scavenger followed by addition of the activator solution (typically 1.0-1.2 molar equivalents).
(§5) The catalyst (and activator solutions for Run A) were all prepared in toluene. The catalyst solution (typically 0.020-0.080 μmol of metal complex) was injected into the reaction vessel and the polymerization was allowed to proceed until a pre-determined amount of ethylene (quench value typically 20 psi) had been used up by the reaction. Alternatively, the reaction may be allowed to proceed for a set amount of time (maximum reaction time typically 30 minutes). Ethylene was added continuously (through the use of computer controlled solenoid valves) to the autoclaves during polymerization to maintain reactor gauge pressure (P setpt, +/−2 psig) and the reactor temperature (T) was monitored and typically maintained within +/−1° C. The reaction was quenched by pressurizing the vessel with compressed air. After the reactor was vented and cooled, the glass vial insert containing the polymer product and solvent was removed from the pressure cell and the inert atmosphere glove box, and the volatile components were removed using a Genevac HT-12 centrifuge and Genevac VC3000D vacuum evaporator operating at elevated temperature and reduced pressure. The vial was then weighed to determine the yield of the polymer product. The resultant polymer was analyzed by Rapid GPC (see below) to determine the molecular weight, by FT-IR (see below) to determine percent octene incorporation, and by DSC (see below) to determine melting point (Tm).
(§6) Equivalence is determined based on the mole equivalents relative to the moles of the transition metal in the catalyst complex.
(§7) Activators of the present disclosure can also be used for activating non-metallocene catalysts for polymerization of olefins. Table 4 illustrates copolymerization of ethylene and octene using activators of the present disclosure and non-metallocene catalysts (CAT-1, CAT-2, CAT-3, and CAT-4).

[3] = Ethylene-octene copolymerization in parallel pressure reactor, non-metallocene catalyst CAT-2; conditions: catalyst CAT-2 20 nmol; activator 1.1 equiv; 100° C.; 135 psi; 1-octene 100 uL; TNOAL 0.5 umol
Procedure: as §1, §2, §3, §4, §5, §6, §7

[4] = Ethylene-octene copolymerization in parallel pressure reactor, non-metallocene catalyst CAT-3; conditions: catalyst CAT-3 20 nmol; activator 1.1 equiv; 100° C.; 135 psi; 1-octene 100 uL; TNOAL 0.5 umol
Procedure: as §1, §2, §3, §4, §5, §6, §7

[5] = Ethylene-octene copolymerization in parallel pressure reactor, non-metallocene catalyst CAT-4; conditions: catalyst CAT-4 20 nmol; activator 1.1 equiv; 100° C.; 135 psi; 1-octene 100 uL; TNOAL 0.5 umol
Procedure: as §1, §2, §3, §4, §5, §6, §7

[6] = Solubility studies of the activators (saturated solution in isohexane or methylcyclohexane); assay type: physicochemical; conditions: methylcyclohexane
[7] = Activator Equiv 1.0, TNOAL 0.25 umol, MCN-1 30 nmol, 85° C., propylene 135 psi
[8] = Activator Equiv 1.0, TNOAL 0.50 umol, MCN-1 30 nmol, 85° C., propylene 135 psi
[9] = Activator Equiv 1.0, TNOAL 0.75 umol, MCN-1 30 nmol, 85° C., propylene 135 psi
[10] = Activator Equiv 1.2, TNOAL 0.25 umol, MCN-1 30 nmol, 85° C., propylene 135 psi
[11] = Activator Equiv 1.2, TNOAL 0.50 umol, MCN-1 30 nmol, 85° C., propylene 135 psi
[12] = Activator Equiv 1.2, TNOAL 0.75 umol, MCN-1 30 nmol, 85° C., propylene 135 psi
[13] = Activator Equiv 1.4, TNOAL 0.25 umol, MCN-1 30 nmol, 85° C., propylene 135 psi
[14] = Activator Equiv 1.4, TNOAL 0.50 umol, MCN-1 30 nmol, 85° C., propylene 135 psi
[15] = Activator Equiv 1.4, TNOAL 0.75 umol, MCN-1 30 nmol, 85° C., propylene 135 psi
[16] = Activator Equiv 1.6, TNOAL 0.25 umol, MCN-1 30 nmol, 85° C., propylene 135 psi
[17] = Activator Equiv 1.6, TNOAL 0.50 umol, MCN-1 30 nmol, 85° C., propylene 135 psi
[18] = Activator Equiv 1.6, TNOAL 0.75 umol, MCN-1 30 nmol, 85° C., propylene 135 psi
[19] = propylene 150 psi, 100° C., MCN-1 = 30 nmol, activator = 33 nmol, TNOAL 500 nmol

What does the source list for CCCCCCCCCCCCCCCCCC[NH+](CCCCCCCCCCCCCCCCCC)c1ccc(C)cc1.Fc1c(F)c(F)c2c(F)c([B-](c3c(F)c(F)c4c(F)c(F)c(F)c(F)c4c3F)(c3c(F)c(F)c4c(F)c(F)c(F)c(F)c4c3F)c3c(F)c(F)c4c(F)c(F)c(F)c(F)c4c3F)c(F)c(F)c2c1F [DOdTH-BF28, 4-methyl-N,N-dioctadecylbenzenaminium-BF28]?
activity [1, 7]: 271 kg/mmol/h and 259 kg/mmol/h and 246 kg/mmol/h; activity [1, 8]: 212 kg/mmol/h and 194 kg/mmol/h and 175 kg/mmol/h; activity [1, 9]: 138 kg/mmol/h and 132 kg/mmol/h and 120 kg/mmol/h; activity [1, 10]: 354 kg/mmol/h and 295 kg/mmol/h and 281 kg/mmol/h; activity [1, 11]: 242 kg/mmol/h and 211 kg/mmol/h and 191 kg/mmol/h; activity [1, 12]: 168 kg/mmol/h and 142 kg/mmol/h and 134 kg/mmol/h; activity [1, 13]: 315 kg/mmol/h and 284 kg/mmol/h and 261 kg/mmol/h; activity [1, 14]: 225 kg/mmol/h and 186 kg/mmol/h and 180 kg/mmol/h; activity [1, 15]: 173 kg/mmol/h and 153 kg/mmol/h and 144 kg/mmol/h; activity [1, 16]: 283 kg/mmol/h and 267 kg/mmol/h; activity [1, 17]: 265 kg/mmol/h and 196 kg/mmol/h and 188 kg/mmol/h; activity [1, 18]: 174 kg/mmol/h and 150 kg/mmol/h and 134 kg/mmol/h; average catalyst activity, comparison of the four activators (FIG. 6) [1]: somewhat lower activity; activity [1, 19]: 138 kg/mmol/h and 153 kg/mmol/h and 101 kg/mmol/h; activity [2]: 3873 kg/mmol/h and 3497 kg/mmol/h; activity [3]: 1034 kg/mmol/h and 533 kg/mmol/h; activity [4]: 838 kg/mmol/h and 829 kg/mmol/h; activity [5]: 48 kg/mmol/h and 46 kg/mmol/h; Solubility limit in MeCy (wt % at 25° C.) [6]: 35 wt %

Which results are given for “N,N-dimethylanilinium tetrakis(heptafluoronaphthalen-2-yl)borate [DMAH-BF28, reference compound]”?
activity [1, 7]: 604 kg/mmol/h and 502 kg/mmol/h; activity [1, 8]: 394 kg/mmol/h and 352 kg/mmol/h; activity [1, 9]: 233 kg/mmol/h and 212 kg/mmol/h; activity [1, 10]: 703 kg/mmol/h and 673 kg/mmol/h; activity [1, 11]: 506 kg/mmol/h and 459 kg/mmol/h; activity [1, 12]: 332 kg/mmol/h and 256 kg/mmol/h; activity [1, 13]: 709 kg/mmol/h and 677 kg/mmol/h; activity [1, 14]: 554 kg/mmol/h and 431 kg/mmol/h; activity [1, 15]: 370 kg/mmol/h and 334 kg/mmol/h; activity [1, 16]: 803 kg/mmol/h; activity [1, 17]: 511 kg/mmol/h and 467 kg/mmol/h; activity [1, 18]: 404 kg/mmol/h and 356 kg/mmol/h; average catalyst activity, comparison of the four activators (FIG. 6) [1]: highest average activities; activity [1, 19]: 175 kg/mmol/h and 231 kg/mmol/h and 160 kg/mmol/h and 121 kg/mmol/h and 211 kg/mmol/h and 188 kg/mmol/h and 190 kg/mmol/h; activity ([1]; propylene, 85 °C, 135 psi, MCN-1 = 20 nmol, activator = 20 nmol, TNOAL 500 nmol): 138 kg/mmol/h; activity [2]: 3494 kg/mmol/h and 3144 kg/mmol/h; activity [3]: 1161 kg/mmol/h and 724 kg/mmol/h; activity [4]: 808 kg/mmol/h and 691 kg/mmol/h; activity [5]: 59 kg/mmol/h and 54 kg/mmol/h
